{"source": "patent US20120142645A1", "about": "“NEUROACTIVE STEROID COMPOSITIONS AND METHODS OF USE FOR LOWERING CHOLESTEROL” (priority 2009, published 2012)", "key": {"[1]": {"test": "Serum neurosteroid and steroid levels (GC/MS, RIA) at baseline and post-treatment; same trial", "details": "for Serum Androstenedione level / Serum Cortisol level / Serum DHEA level / Serum DHEAS level / Serum PGS (pregnenolone sulfate) level / Serum Total testosterone level / Serum Estradiol level / Serum ALLO (allopregnanolone) level / Serum Free testosterone level / Serum PG (pregnenolone) level / Serum Progesterone level: mean ± SD; for Serum Estradiol level: n = 7; for Serum ALLO (allopregnanolone) level / Serum Free testosterone level / Serum PG (pregnenolone) level / Serum Progesterone level: n = 8; for Serum testosterone, free testosterone, cortisol, DHEA, estradiol, or androstenedione levels: after 8 weeks of pregnenolone vs baseline", "description": "Study drug was dispensed every 2 weeks at each study visit at fixed escalating doses as follows: Visit 1: Two-week single-blind placebo lead-in phase, one placebo tablet twice each day (all pts), Visit 2: Randomization to PREG 50 mg twice each day (100 mg/day total) or placebo for 2 wks, Visit 3: PREG 150 mg twice each day (300 mg/day total) or placebo for 2 weeks, Visit 4: PREG 250 mg twice each day (500 mg/day total) or placebo for 2 weeks, Visit 5: PREG 250 mg twice each day (500 mg/day total) or placebo continued for 2 weeks. Patients thus received PREG 500 mg per day in divided doses during the last 4 weeks of the study. Patients also received the Hillside Adverse Events Scale at Visits 2-6, and during staggered telephone check-in calls every two weeks, beginning one week into the single-blind placebo lead-in phase.\nNeurosteroid Analyses. […] One mL of serum was extracted three times in ethyl acetate prior to high performance liquid chromatography (HPLC) purification utilizing tetrahydrofuran, ethanol, and hexane in the mobile phase. All samples were injected in duplicate. […] All other serum steroid levels were determined utilizing commercially available radioimmunoassay (RIA) kits according to manufacturer directions (progesterone, cortisol, testosterone, free testosterone, and DHEAS: Diagnostic System Laboratories, Webster, Tex.). DHEA serum levels were determined utilizing a kit from ICN Pharmaceuticals (Costa Mesa, Calif.).\nStatistical Analysis. Primary endpoints were changes from baseline at Visit 2 following a two-week placebo lead-in period (all patients) to final assessment at Visit 6 in cognitive symptoms (as assessed by BAGS and MATRICS composite scores) and negative symptoms (as assessed by SANS total scores). […] Student's t-tests were conducted on the change scores between treatment groups in this proof-of-concept study (two-tailed alpha p=0.05 for each statistical test)."}, "[2]": {"system": "patients with schizophrenia or schizoaffective disorder", "test": "Side effect profile and tolerability (Hillside AE Form); same trial", "format": "in vivo, human", "source_text": "During the screening visit (Visit 1), patients received a physical exam, vital signs, and electrocardiogram (EKG), as well as baseline laboratory measures consisting of serum electrolytes, glucose, creatinine, blood urea nitrogen (chemistry 7 panel), liver function tests, complete blood count (CBC), urinalysis, urine toxicology test, thyroid stimulating hormone (TSH), and prolactin, and serum pregnancy test if female. These tests were also repeated at the completion of the study (Visit 6). In addition, patients received an interim EKG 4 weeks post-randomization, as well as a serum pregnancy test if female (Visit 4). Patients also received a chemistry 7 panel, CBC, and liver function tests at Visits 2, 3, 4, and 5 (i.e., at all study visits). Psychiatric symptoms were assessed at baseline using the Scale for the Assessment of Negative Symptoms (Andreasen, 1983), the Positive and Negative Symptom Scale (PANSS; Kay et al., 1987), the Calgary Depression Rating Scale (CDRS; Addington et al., 1990), the Clinical Global Impressions Improvement (CGI-I) and Severity (CGI-S) scales, the Barnes Akathisia Scale (BAS; Barnes, 1989), the Simpson Angus Scale for Extrapyramidal Symptoms (SAS; Simpson & Angus, 1970), the Quality of Life Scale (QOL; Heinrichs et al., 1984), and the Hillside Side Effects Scale. One research nurse with five years of experience in the conduction of schizophrenia clinical trials completed both psychiatric and cognitive assessments throughout the study, and was trained to one point of divergence on each PANSS item."}, "[3]": {"details": "after 8 weeks of pregnenolone, listed as Pregnenolone"}, "[4]": {"details": "after 8 weeks of pregnenolone, listed as pregnenolone"}, "[5]": {"details": "change from baseline pre-randomization, n = 9"}, "[6]": {"details": "change from baseline pre-randomization, n = 9, mild in all subjects"}, "[7]": {"details": "change from baseline pre-randomization, n = 9, mild in all subjects, listed as pregnenolone"}}, "note": "Entries after “also recorded” stand apart in the source; their conditions may differ. Marks after values point to notes of the source that are not given here.", "data": [{"smiles": "CC(=O)[C@H]1CC[C@H]2[C@@H]3CC=C4C[C@@H](O)CC[C@]4(C)[C@H]3CC[C@]12C", "note": "[PG, pregnenolone]", "values": [{"measurement": "Serum Androstenedione level", "setting": "[1]; Week 0 (baseline)", "value": "2.93 ± 1.30", "unit": "ng/mL"}, {"measurement": "Serum Cortisol level", "setting": "[1]; Week 0 (baseline)", "value": "8.08 ± 2.80", "unit": "μg/100 ml"}, {"measurement": "Serum DHEA level", "setting": "[1]; Week 0 (baseline)", "value": "7.85 ± 5.94", "unit": "ng/mL"}, {"measurement": "Serum DHEAS level", "setting": "[1]; Week 0 (baseline)", "value": "124.72 ± 86.52", "unit": "μg/100 ml"}, {"measurement": "Serum PGS (pregnenolone sulfate) level", "setting": "[1]; Week 0 (baseline)", "value": "33.4 ± 18.3", "unit": "ng/mL"}, {"measurement": "Serum Total testosterone level", "setting": "[1]; Week 0 (baseline)", "value": "302.83 ± 158.53", "unit": "ng/100 ml"}, {"measurement": "Serum Estradiol level", "setting": "[1]; Week 0 (baseline)", "value": "24.64 ± 6.21", "unit": "pg/mL"}, {"measurement": "Serum ALLO (allopregnanolone) level", "setting": "[1]; Week 0 (baseline)", "value": "110.7 ± 78.9", "unit": "pg/mL"}, {"measurement": "Serum Free testosterone level", "setting": "[1]; Week 0 (baseline)", "value": "7.96 ± 1.07", "unit": "pg/mL"}, {"measurement": "Serum PG (pregnenolone) level", "setting": "[1]; Week 0 (baseline)", "value": "499.9 ± 313.6", "unit": "pg/mL"}, {"measurement": "Serum Progesterone level", "setting": "[1]; Week 0 (baseline)", "value": "0.38 ± 0.15", "unit": "ng/mL"}, {"measurement": "Serum Androstenedione level", "setting": "[1]; Week 8", "value": "3.01 ± 4.66", "unit": "ng/mL"}, {"measurement": "Serum Cortisol level", "setting": "[1]; Week 8", "value": "7.96 ± 3.85", "unit": "μg/100 ml"}, {"measurement": "Serum DHEA level", "setting": "[1]; Week 8", "value": "6.33 ± 3.26", "unit": "ng/mL"}, {"measurement": "Serum DHEAS level", "setting": "[1]; Week 8", "value": "144.87 ± 97.30", "unit": "μg/100 ml"}, {"measurement": "Serum PGS (pregnenolone sulfate) level", "setting": "[1]; Week 8", "value": "94.4 ± 14.3", "unit": "ng/mL"}, {"measurement": "Serum Total testosterone level", "setting": "[1]; Week 8", "value": "303.08 ± 156.05", "unit": "ng/100 ml"}, {"measurement": "Serum Estradiol level", "setting": "[1]; Week 8", "value": "25.42 ± 4.73", "unit": "pg/mL"}, {"measurement": "Serum ALLO (allopregnanolone) level", "setting": "[1]; Week 8", "value": "823.1 ± 528.9", "unit": "pg/mL"}, {"measurement": "Serum Free testosterone level", "setting": "[1]; Week 8", "value": "7.31 ± 2.04", "unit": "pg/mL"}, {"measurement": "Serum PG (pregnenolone) level", "setting": "[1]; Week 8", "value": "2096.0 ± 999.4", "unit": "pg/mL"}, {"measurement": "Serum Progesterone level", "setting": "[1]; Week 8, listed as Pregnenolone", "value": "2.17 ± 0.64", "unit": "ng/mL"}, {"measurement": "Serum Progesterone level", "setting": "[1]; Week 8, listed as pregnenolone", "value": 2.17, "unit": "ng/mL"}, {"measurement": "Increase in serum DHEAS levels over baseline", "setting": "[1]; after 8 weeks of pregnenolone", "value": "approximately 16%"}, {"measurement": "Increase in serum PGS levels over baseline", "setting": "[1]; after 8 weeks of pregnenolone", "value": "tripled"}, {"measurement": "Increase in serum progesterone over baseline", "setting": "[1]; after 8 weeks of pregnenolone", "value": "over four-fold"}, {"measurement": "Serum testosterone, free testosterone, cortisol, DHEA, estradiol, or androstenedione levels", "setting": "[1]; listed as Pregnenolone", "value": "did not result in downstream elevations"}, {"measurement": "Serum testosterone, free testosterone, cortisol, DHEA, estradiol, or androstenedione levels", "setting": "[1]; listed as pregnenolone", "value": "did not increase"}, {"measurement": "Elevation in serum levels of PG over baseline", "setting": "[1]; [3]", "value": "approximately four-fold elevations"}, {"measurement": "Increase in serum ALLO over baseline", "setting": "[1]; [3]", "value": "five-fold elevations"}, {"measurement": "Elevation in serum levels of PG over baseline", "setting": "[1]; [4]", "value": "approximate four-fold increase"}, {"measurement": "Increase in serum ALLO over baseline", "setting": "[1]; [4]", "value": "five-fold"}, {"measurement": "Serious adverse event related to study medication", "setting": "[2]; 8-week trial", "value": "No patients receiving pregnenolone experienced a serious adverse event"}, {"measurement": "Side effect: Akathisia", "setting": "[2]; [5]", "value": "0 N (%)"}, {"measurement": "Side effect: All Other Side Effects", "setting": "[2]; [5]", "value": "0 N (%)"}, {"measurement": "Side effect: Blurred Vision", "setting": "[2]; [5]", "value": "0 N (%)"}, {"measurement": "Side effect: Diarrhea", "setting": "[2]; [5]", "value": "0 N (%)"}, {"measurement": "Side effect: Drowsiness", "setting": "[2]; [5]", "value": "0 N (%)"}, {"measurement": "Side effect: Excitation/Agitation", "setting": "[2]; [5]", "value": "0 N (%)"}, {"measurement": "Side effect: Headache", "setting": "[2]; [5]", "value": "0 N (%)"}, {"measurement": "Side effect: Impaired Sexual Performance", "setting": "[2]; [5]", "value": "0 N (%)"}, {"measurement": "Side effect: Insomnia", "setting": "[2]; [5]", "value": "0 N (%)"}, {"measurement": "Side effect: Joint Pain/Stiffness", "setting": "[2]; [5]", "value": "0 N (%)"}, {"measurement": "Side effect: Malaise", "setting": "[2]; [5]", "value": "0 N (%)"}, {"measurement": "Side effect: Nasal Congestion", "setting": "[2]; [5]", "value": "0 N (%)"}, {"measurement": "Side effect: Peripheral Edema", "setting": "[2]; [5]", "value": "0 N (%)"}, {"measurement": "Side effect: Rigidity", "setting": "[2]; [5]", "value": "0 N (%)"}, {"measurement": "Side effect: Sweating", "setting": "[2]; [5]", "value": "0 N (%)"}, {"measurement": "Side effect: Tremor", "setting": "[2]; [5]", "value": "0 N (%)"}, {"measurement": "Side effect: Hypertension", "setting": "[2]; change from baseline pre-randomization, n = 9, mild (<145/90)", "value": "1 (11%)^b N (%)"}, {"measurement": "Side effect: Cold Extremities", "setting": "[2]; [6]", "value": "1 (11%)^a N (%)"}, {"measurement": "Side effect: Decreased Interest in Sex", "setting": "[2]; [6]", "value": "1 (11%)^a N (%)"}, {"measurement": "Side effect: Disorientation (to date, address, mayor, or MD name)", "setting": "[2]; [6]", "value": "2 (22%)^a N (%)"}, {"measurement": "Side effect: Dry mouth", "setting": "[2]; [6]", "value": "1 (11%)^a N (%)"}, {"measurement": "Side effect: Muscle Pain/Stiffness", "setting": "[2]; [6]", "value": "1 (11%)^a N (%)"}, {"measurement": "Side effect: Restlessness", "setting": "[2]; [6]", "value": "2 (22%)^a N (%)"}, {"measurement": "Side effect: Cold Extremities", "setting": "[2]; [7]", "value": "one report of mild cold extremities; also recorded: one instance of mild cold extremities"}, {"measurement": "Side effect: Muscle Pain/Stiffness", "setting": "[2]; [7]", "value": "one report of mild muscle pain/stiffness; also recorded: one instance of mild muscle pain/stiffness"}, {"measurement": "Side effect: Restlessness", "setting": "[2]; [7]", "value": "two reports of mild restlessness; also recorded: two instances of mild restlessness"}, {"measurement": "Tolerability", "setting": "[2]; doses up to 500 mg/day, 8 weeks", "value": "very well-tolerated"}, {"measurement": "Weight gain, blood pressure, or pulse rate changes", "setting": "[2]; during the course of the study", "value": "did not demonstrate significant weight gain, blood pressure, or pulse rate changes"}]}]}
